Experimental data reported in patent EP0610377B1, “TRI-SUBSTITUTED TETRAHYDROFURAN ANTIFUNGALS” (SCHERING CORPORATION, priority 1991, dated 1993).

Experiments:
C. albicans C-65 = assay: Candida systemic model in normal and compromised CF1 mice infected with C. albicans C-65, oral treatment; format: in vivo; settings: for CFUs (GM): geometric mean of the logarithms of CFU in the kidneys
Protocol: The compounds of Examples 23-26 and itraconazole, fluconazole, and saperconazole were tested for in vivo oral antifungal activity in a Candida systemic model using CF1 male mice , average weight 20 g, Harlan Sprague Dawley, Inc., Indianapolis, Ind. infected by IV injection into the tail vein of C. albicans C-43 (5 million CFUs). The drugs were dissolved in polyethylene glycol-200 (PEG-200) and tested by orally administering 50, 25 and 10 mpk of each drug 4 hours post infection and once daily for 3 more days. Oral efficacy was measured after four (4) days by percent survival and by the number of organisms remaining in the kidneys i.e., the Colony Forming Units (CFUs). The mice were sacrificed and the kidneys of individual mice were homogenized in sterile saline, diluted and spread onto Mycosel agar. Colony counts were determined after 48 hours at 37°C. For calculation of geometric means, mice that died during the experiment were considered to have 10^9 CFUs/kidneys (based on numerous previous experiments).
The compounds of Examples 23-24 and itraconazole, fluconazole, were tested for in vivo oral antifungal anctivity in a Candida systemic model using normal and compromised CF1 mice infected with C. albicans C-65 (5 million CFUs). The procedure of Example 33 was followed. The drugs were dissolved in polyethylene glycol-200 ("PEG-200) at room temperature and tested by orally administering 100, 50, 25, 10 and 1 mpk of each drug. Oral efficacy was measured by percent survival and by the number of organisms remaining in the kidneys (CFUs) after four days. […] The pharmaceutical composition of the preferred compound of formula IIb of Eample 24 in hydroxypropyl beta cyclodextrin ("HPβCD") having 7.4 hydroxypropyl groups per HPβCD (obtained from Pharmatec, Inc., Alachua, FL 32615) was prepared by admixing the appropriate amount of the compound IIa with a 40% (w/v) solution of HPβCD (4 g of HPβCD per 10 mL of purified water). Gentle heating was used to form a clear solution. For the 10 mpk dose, 12 mg of Ha was added to 6 mL of a 40% w/v solution of HPβCD. For dilutions, sterile water was added to the solution with mixing. The pharmaceutical composition of itraconazole and the Pharmatec HPβCD described above was prepared as follows. Propylene glycol (10 mL) was admixed with 0.95 mL of concentrated HCI at 40°-45°C with stirring. Itraconazole (2.5 g) was added thereto and stirring was continued until homogeneous. The mixture so formed was cooled to 20° to 30°C and admixed with a solution of 60 g of HPβCD in 40 mL of purified water to form a clear solution. The pH was adjusted to a value of 1.9-2.1 with 10N NaOH and sufficient purified water added (with mixing) to a final volume of 100 mL. For dilutions, sterile water was added to the itraconazole - HPβCD.

Candida = Candida vaginal infection in a hamster model; format: in vivo; settings: result in words
[1] = 600 Rads Mice (compromised), 10 MPK PO in PEG-200, 1/day x 4 days, day 4 post-infection
[2] = 600 Rads Mice (compromised), 10 MPK PO in PEG-200, day 4
[3] = 600 Rads Mice (compromised), 25 MPK PO in PEG-200, 1/day x 4 days, day 4 post-infection
[4] = 600 Rads Mice (compromised), 25 MPK PO in PEG-200, day 4
[5] = 600 Rads Mice (compromised), 50 MPK PO in PEG-200, 1/day x 4 days, day 4 post-infection
[6] = 600 Rads Mice (compromised), 50 MPK PO in PEG-200, day 4
[7] = 600 Rads Mice (compromised), 100 MPK PO in PEG-200, 1/day x 4 days, day 4 post-infection
[8] = 600 Rads Mice (compromised), 100 MPK PO in PEG-200, day 4
[9] = Normal Mice, 1 MPK PO in PEG-200, 1/day x 4 days, day 4 post-infection
[10] = Normal Mice, 1 MPK PO in PEG-200, day 4
[11] = Normal Mice, 10 MPK PO in PEG-200, 1/day x 4 days, day 4 post-infection
[12] = Normal Mice, 10 MPK PO in PEG-200, day 4
[13] = Normal Mice, 25 MPK PO in PEG-200, 1/day x 4 days, day 4 post-infection
[14] = Normal Mice, 25 MPK PO in PEG-200, day 4
[15] = Normal Mice, 50 MPK PO in PEG-200, 1/day x 4 days, day 4 post-infection
[16] = Normal Mice, 50 MPK PO in PEG-200, day 4

| SMILES | % S (Percent Survival) (C. albicans C-65; [1]) | CFUs (GM) (C. albicans C-65; [2]) | % S (Percent Survival) (C. albicans C-65; [3]) | CFUs (GM) (C. albicans C-65; [4]) | % S (Percent Survival) (C. albicans C-65; [5]) | CFUs (GM) (C. albicans C-65; [6]) | % S (Percent Survival) (C. albicans C-65; [7]) | CFUs (GM) (C. albicans C-65; [8]) | % S (Percent Survival) (C. albicans C-65; [9]) | CFUs (GM) (C. albicans C-65; [10]) | % S (Percent Survival) (C. albicans C-65; [11]) | CFUs (GM) (C. albicans C-65; [12]) | % S (Percent Survival) (C. albicans C-65; [13]) | CFUs (GM) (C. albicans C-65; [14]) | % S (Percent Survival) (C. albicans C-65; [15]) | CFUs (GM) (C. albicans C-65; [16]) | further results |
| --- | --- | --- | --- | --- | --- | --- | --- | --- | --- | --- | --- | --- | --- | --- | --- | --- | --- |
| CC[C@@H](C)n1ncn(-c2ccc(N3CCN(c4ccc(OC[C@@H]5CO[C@@](Cn6cncn6)(c6ccc(F)cc6F)C5)cc4)CC3)cc2)c1=O [Example 23] | 0% | 9.00 | 20% | 8.65 | 30% | 7.33 | 50% | 6.43 | 0% | 9.00 | 30% | 7.12 | 60% | 5.74 | 90% | 4.69 |  |
| CC[C@H](C)n1ncn(-c2ccc(N3CCN(c4ccc(OC[C@@H]5CO[C@@](Cn6cncn6)(c6ccc(F)cc6F)C5)cc4)CC3)cc2)c1=O [Example 24, (-)-[(5R)-cis]-4-[4-[4-[4-[[5-(2,4-Difluorophenyl)-5-(1H-1,2,4-triazol-1-ylmethyl)tetrahydrofuran-3-yl]methoxy]phenyl]-1-piperazinyl]phenyl]-2,4-dihydro-2-[(1S)-(1-methylpropyl)]-3H-1,2,4-triazol-3-one] | 0% | 9.00 | 20% | 8.27 | 30% | 7.58 | 80% | 6.28 | 30% | 7.73 | 40% | 7.48 | 90% | 4.67 | 100% | 4.44 | activity against a Candida vaginal infection compared with itraconazole and saperconazole (Candida): more active; % S (Percent Survival) (C. albicans C-65; 600 Rads Mice (compromised), 10 MPK PO in Beta-CD, 1/day x 4 days, day 4): 30%; CFUs (GM) (C. albicans C-65; 600 Rads Mice (compromised), 10 MPK PO in Beta-CD, day 4): 7.88; % S (Percent Survival) (C. albicans C-65; Normal Mice, 1 MPK PO in Beta-CD (hydroxypropyl-beta-cyclodextrin), 1/day x 4 days, day 4): 70%; CFUs (GM) (C. albicans C-65; Normal Mice, 1 MPK PO in Beta-CD, day 4): 5.97; % S (Percent Survival) (C. albicans C-65; Normal Mice, 10 MPK PO in Beta-CD (hydroxypropyl-beta-cyclodextrin), 1/day x 4 days, day 4): 100%; CFUs (GM) (C. albicans C-65; Normal Mice, 10 MPK PO in Beta-CD, day 4): 4.94; oral activity in the Candida systemic model compared with itraconazole (C. albicans C-65; doses of 50 and 25 mpk, each drug dissolved in PEG-200, result in words): more active orally; activity against systemic candidiasis compared with itraconazole and saperconazole (C. albicans C-65; normal and compromised mice, result in words (text refers to Tables II and V)): more active |
| CCC(C)n1ncn(-c2ccc(N3CCN(c4ccc(OCC5COC(Cn6cncn6)(c6ccc(Cl)cc6Cl)O5)cc4)CC3)cc2)c1=O (centres unmarked) [Itraconazole, reference compound] | 0% | 9.00 | 0% | 9.00 | 0% | 9.00 | 20% | 8.45 | 0% | 900 | 30% | 7.64 | 50% | 6.93 | 60% | 5.98 | % S (Percent Survival) (C. albicans C-65; 600 Rads Mice (compromised), 10 MPK PO in Beta-CD-H, 1/day x 4 days, day 4): 30%; CFUs (GM) (C. albicans C-65; 600 Rads Mice (compromised), 10 MPK PO in Beta-CD-H, day 4): 8.11; % S (Percent Survival) (C. albicans C-65; 600 Rads Mice (compromised), 25 MPK PO in Beta-CD-H, 1/day x 4 days, day 4): 60%; CFUs (GM) (C. albicans C-65; 600 Rads Mice (compromised), 25 MPK PO in Beta-CD-H, day 4): 7.98; % S (Percent Survival) (C. albicans C-65; Normal Mice, 10 MPK PO in Beta-CD-H (HPβCD vehicle for itraconazole), 1/day x 4 days, day 4): 0%; CFUs (GM) (C. albicans C-65; Normal Mice, 10 MPK PO in Beta-CD-H, day 4): 9.00; % S (Percent Survival) (C. albicans C-65; Normal Mice, 25 MPK PO in Beta-CD-H (HPβCD vehicle for itraconazole), 1/day x 4 days, day 4): 100%; CFUs (GM) (C. albicans C-65; Normal Mice, 25 MPK PO in Beta-CD-H, day 4): 6.19 |
